We go through two molecules from paper PMC3365588 (Structure(London, England:1993), 2009).

In one test the test system is E. coli RNase H. To be noted: cited from earlier work.
Test [1] has as its target T1, HIV-1 RT (Human immunodeficiency virus type 1 group M subtype B, UniProt P03366). In words: Direct binding assay using intrinsic protein fluorescence. To be noted: KD^fluor.
Test [2] relates to RNase H cleavage by HIV-1 RT. To be noted: cited from earlier work.
Test [3] has as its target T1, HIV-1 RT. In words: Direct binding assay using surface plasmon resonance. To be noted: for Kd: KD^SPR. (Surface plasmon resonance follows binding to a sensor surface in real time, without labels.)
For a further test, the system named is RNH activity of HIV-1. Conditions: read-out: IC50, inhibition of RNH activity; previously reported; cited from earlier work.
Another test deals with HIV-1 integrase. In words: Inhibition of HIV-1 integrase. Format: biochemical. Conditions: data not shown.
The test system of test [4] is HIV-1 RT with benzoyl-L-phenylalanine in place of Tyr501. Conditions: cited from earlier work.
[5] abbreviates: Enzyme + MgCl2, free enzyme (no substrate).

As for `CC(C)c1ccc(O)c(=O)c(O)c1` [β-thujaplicinol, 2,7-dihydroxy-4-(propan-2-yl)-cyclohepta-2,4,6-trien-1-one], the “Fold difference of IC50, RNH of HIV-1 RT vs E. coli RNase H” value in the test with E. coli RNase H is about 300 fold. Also, the Kd – broadly, the free concentration of one partner at which half of the binding sites on the other are occupied at equilibrium, for simple one-to-one binding – at HIV-1 RT [1] (Enzyme + MgCl2 + ds RNA (non-hydrolyzable substrate analog)) is 0.185 ± 0.008 µM; at HIV-1 RT [1] (setting [5]), 1 µM; at HIV-1 RT [3] (setting [5]) it was 6 ± 1 µM; at HIV-1 RT [3] (Enzyme, no metal (MgCl2 omitted, EDTA added)) it was over 100 µM. The “Inhibition of polymerase-independent secondary cuts in the RNA strand” value in test [2] is reported as “inhibits polymerase-independent “secondary cuts””. Also, the “Inhibition of RNase H cleavage with pre-formed Enzyme·Substrate complex” value in test [2] (pre-steady state conditions, ref Bielhartz et al) is “unable to inhibit RNase H cleavage”. Besides, the “Inhibition of polymerase dependent cleavage” value in test [2] (ref Bielhartz et al) is recorded as “not an inhibitor of polymerase dependent cleavage”. Moreover, the concentration for half-maximal inhibition (IC50) – broadly, the concentration that inhibits the measured activity by half – is over 100 µM at HIV-1 RT [3] and 0.21 µM in the test on RNH activity of HIV-1. In addition, in the test with HIV-1 integrase, the “Fold difference of IC50, RNH of HIV-1 RT vs HIV-1 integrase” value is “over 10 fold”. The “Effect of substituting benzoyl-L-phenylalanine for Tyr501 on inhibition” value in test [4] is listed as “conferred resistance to inhibition”.

In the case of `CC(C)c1ccccc(=O)c1O` [α-thujaplicin], the IC50 with RNH activity of HIV-1 is 50 µM.
